For three compounds, EC50 and IC50 results are on record in ChEMBL document CHEMBL1151254, “A new anti-HIV alkaloid, drymaritin, and a new C-glycoside flavonoid, diandraflavone, from Drymaria diandra” (J Nat Prod, 2004).

Converted amounts (≈) assume the structure as drawn.

Assay [1] has as its system Human immunodeficiency virus. The assay can be described thus: Antiviral activity against HIV in human H9 cells. Particulars: Human immunodeficiency virus 1, H9. The assay is classed as functional, organism-based.
For a further assay, the system named is Neutrophil. The assay can be described thus: Inhibition of fMLP/CB-stimulated superoxide anion generation in human neutrophils. The assay is classed as functional, cell-based.

Regarding `COc1cnc2ccc(=O)n3c4ccccc4c1c23`, in assay [1], the half-maximal effective concentration (EC50) (as a rule, the concentration at which the effect is half-maximal) was found to be 20.6 µg/mL (≈ 82.3 µM).
Consider `COc1cc2oc(-c3ccc([C@@H]4O[C@H](CO)[C@@H](O)[C@H](O)[C@H]4O)cc3)cc(=O)c2c(O)c1[C@H]1C[C@@H](O)[C@@H](O)[C@@H](C)O1` [DIANDRAFLAVONE A], for which half-maximal inhibition with Neutrophil (IC50) required 10 µg/mL (≈ 17.8 µM).
The compound `COc1cn2c3ccccc3c3ccnc(c1=O)c32` [DRYMARITIN] gave a 50% effective concentration (EC50) in assay [1] of 0.699 µg/mL (≈ 2.79 µM).
